Test results from patent EP3917907B1, “MODULATORS OF POTASSIUM ION CHANNELS AND USES THEREOF” (Universitá Degli Studi Di Salerno, priority 2019, dated 2020).

What was measured:
[1] = Solution stability (HPLC, extracellular solution, ambient temperature); type: physicochemical; settings: percentage of degradation after 6 h at ambient temperature; 100 ppm in extracellular solution pH 7.4
Method: (§1) In order to study the solution stability and photostability of the potassium channel modulators object of the present invention, a stock solution of the proper analyte (1 mg/mL) in dimethylsulfoxide (DMSO) has been prepared. This solution has been then diluted to a concentration of 100 ppm using extracellular solution containing (in mM): 138 NaCl, 2 CaCl2, 5.4 KCl, 1 MgCl2, 10 glucose, and 10 HEPES, at pH 7.4, adjusted with NaOH. To measure solution stability, the diluted solutions have been maintained at ambient temperature for 6 h. To measure photostability, the diluted solutions have been irradiated for 6 h using a Oriel Sol3A Solar Simulator (Newport corporation, Irvine, CA, USA) with a 12x12 inches output beam. Aliquots of solution have been withdrawn after 6h and analyzed by HPLC using a Kinetex C18, 150 mm × 4.6 mm × 2.6 µm (Phenomenex, Bologna, Italy) as stationary phase and a mobile phase constituted by A: H2O/CH3CN (80:20) and B: CH3CN. Gradient elution has been performed from 20% to 90% of B in 7.50 minutes and from 90% to 20% of B in 1 minute. The pump flux has been set to 1.5 mL/min. Column has been thermostatted at 40°C during analysis. Results are espressed in Table 3 as percentage of degradation of the product calculated as ratio between the peak area of the analyte at time 0 (Pa0) and after 6h (Pa6) using the following formula: % degradation = (Pa0−Pa6)/Pa0 *100. [formula]

Kv7.2 = biological target: T1, Kv7.2 (Homo sapiens, UniProt O43526); assay: Whole-cell patch-clamp on CHO cells transiently expressing Kv7.2; type: cell-based; settings: CHO cells, mean±SEM, >1 activating, <1 inhibiting; for Idrug/Ictl at 0 mV: ratio of ramp-evoked Kv7.2 current amplitude in presence and absence of drug at 0 mV; for Idrug/Ictl at -40 mV: ratio of ramp-evoked Kv7.2 current amplitude in presence and absence of drug at -40 mV
T1 construct: expressed in transfected cells; host or cells: CHO cells (ATCC CRL-9618), transient transfection, pcDNA3.1(+)
Method: According to the experimental protocol, these plasmids were expressed individually or in combination (in particular of Kv7.2 and Kv7.3), together with a plasmid-expressing enhanced green fluorescent protein (Clontech, Palo Alto, CA) used as a transfection marker. Total cDNA in the transfection mixture was kept at 4 µg. CHO cells were grown in 100-mm plastic Petri dishes in Dulbecco's modified Eagle's medium containing 10% fetal bovine serum, nonessential amino acids (0.1 mM), penicillin (50 U/ml), and streptomycin ([…]) in a humidified atmosphere at 37°C with 5% CO2. The cells were plated on glass coverslips coated with poly-L-lysine, and transfected one day after plating with the appropriate cDNA using Lipofectamine 2000 (Life Technologies), according to the manufacturer's protocol.
Currents from CHO cells were recorded at room temperature (20-22°C) 24 hours after trasfection using the whole-cell configuration of the patch-clamp technique, with glass micropipettes of 3-5 MΩ resistance. During the recording, constant perfusion of extracellular solution was maintained. The extracellular solution contained (in mM): 138 NaCl, 2 CaCl2, 5.4 KCl, 1 MgCl2, 10 glucose, and 10 HEPES, at pH 7.4, adjusted with NaOH. The pipette (intracellular) solution contained (in mM): 140 KCl, 2 MgCl2, 10 EGTA, 10 HEPES, 5 Mg^2+-ATP, at pH 7.3-7.4, adjusted with KOH. Currents were recorded using an Axopatch-200A amplifier, filtered at 5 kHz, and digitized using a DigiData 1440A (Molecular Devices). The pCLAMP software (version 10.2, Molecular Devices) was used for data acquisition and analysis. To evaluate the activity of exemplary compounds on Kv7.2 (see Table 1), as well as on Kv7.1, Kv7.2/7.3, Kv7.3 and Kv7.4 channels for selected compounds (see Table 2), the cells were clamped at -80 mV and currents were elicited by 3-s voltage ramps from -80 mV to +20 mV in the presence and absence of each compound. […] The effects of drugs were expressed as shift in the ramp-voltage (ΔV) calculated at 20% of the maximal current (Miceli et al, Proc Natl Acad Sci U S A. 2013, 110(11):4386-91). Curves were fitted using the following equation: y=max/(1+x/EC50)n, where x is the drug concentration, n is the Hill coefficient and max is the maximal value achieved, as previously described (Ambrosino et al, Br J Pharmacol. 2013, 168(6):1430-1444). Data analysis and fit were performed using Sigmaplot (version 12.3).
Ramp-evoked Kv7.2 currents were analyzed by measuring the currents at -40 mV (a membrane potential value close to the activation threshold) and at 0 mV (a membrane potential value at which Kv7.2 conductance is largely saturated). In particular, -40 mV represents the threshold potential for spike initiation and 0 mV represents instead the membrane potential value at which maximal conductance of the channel is achieved.
In Table 1, the effect of exemplary compounds of the invention is expressed as the ratio between current amplitude in the presence (Idrug) and absence (Ictl) of the drug at these two membrane voltages. […]

[2] = Photostability (HPLC, solar simulator irradiation); type: physicochemical; settings: percentage of degradation after 6 h irradiation with solar simulator; 100 ppm in extracellular solution pH 7.4
Method: as §1

Structure (SMILES) | Solution stability [1] | Idrug/Ictl at 0 mV (Kv7.2) | Idrug/Ictl at -40 mV (Kv7.2) | Photostability [2]
CC(C)(C)CNC(=N)Nc1ccc2c(c1)CCN2Cc1ccc(F)cc1 [1-(1-(4-fluorobenzyl)indolin-5-yl)-3-neopentylguanidine] | A (degradation lower than 20%) | 0.84±0.09 | 0.98±0.09 | B (20%< degradation<40%)
CC(C)(C)CNC(=S)Nc1ccc2c(c1)CCN2Cc1ccc(F)cc1 [1-(1-(4-fluorobenzyl)indolin-5-yl)-3-neopentylthiourea] | A (degradation lower than 20%) | – | – | B (20%< degradation<40%)
CC(C)(C)CNC(=O)Nc1ccc2c(c1)CCN2Cc1ccc(F)cc1 [1-(1-(4-fluorobenzyl)indolin-5-yl)-3-neopentylurea] | A (degradation lower than 20%) | 1.40±0.08 | 3.31±0.61 | A (degradation lower than 20%)
CC1(C)[C@H]2CC[C@]1(CS(=O)(=O)Nc1ccc3c(c1)CCN3Cc1ccc(F)cc1)C(=O)C2 [1-((1R,4S)-7,7-dimethyl-2-oxobicyclo[2.2.1]heptan-1-yl)-N-(1-(4-fluorobenzyl)indolin-5-yl)methanesulfonamide] | C (degradation > 40%) | 1.16±0.07 | 1.49±0.28 | C (degradation > 40%)
CC1(C)[C@@H]2CC[C@@]1(CS(=O)(=O)Nc1ccc3c(c1)CCN3Cc1ccc(F)cc1)C(=O)C2 [1-((1S,4R)-7,7-dimethyl-2-oxobicyclo[2.2.1]heptan-1-yl)-N-(1-(4-fluorobenzyl)indolin-5-yl)methanesulfonamide] | C (degradation > 40%) | 0.99±0.06 | 1.12±0.05 | C (degradation > 40%)
O=S(=O)(CC1CCCCC1)Nc1ccc2c(ccn2Cc2ccc(F)cc2)c1 [1-cyclohexyl-N-(1-(4-fluorobenzyl)-1H-indol-5-yl)methanesulfonamide] | A (degradation lower than 20%) | – | – | A (degradation lower than 20%)
CCc1cccc(S(=O)(=O)Nc2ccc(NCc3ccc(OC)cc3)cc2)c1 [3-ethyl-N-(4-((4-methoxybenzyl)amino)phenyl)benze nesulfonamide] | B (20%< degradation<40%) | – | – | C (degradation > 40%)
COc1ccc([C@@H](C)Nc2ccc(NS(=O)(=O)C3CCCCC3)cc2)cc1 [(R)-N-(4-((1-(4-methoxyphenyl)ethyl)amino)phenyl) cyclohexanesulfonamide] | B (20%< degradation<40%) | – | – | C (degradation > 40%)
COc1ccc([C@H](C)Nc2ccc(NS(=O)(=O)C3CCCCC3)cc2)cc1 [(S)-N-(4-((1-(4-methoxyphenyl)ethyl)amino)phenyl) cyclohexanesulfonamide] | B (20%< degradation<40%) | – | – | C (degradation > 40%)
O=C(Cn1ccc2cc(NS(=O)(=O)CC3CCCCC3)ccc21)c1ccc(Br)cc1 [N-(1-(2-(4-bromophenyl)-2-oxoethyl)-1H-indol-5-yl)-1-cyclohexylmethanesulfonamide] | A (degradation lower than 20%) | – | – | B (20%< degradation<40%)
O=C(Cc1ccc(Cl)cc1)n1ccc2cc(NS(=O)(=O)C3CCCCC3)ccc21 [N-(1-(2-(4-chlorophenyl)acetyl)-1H-indol-5-yl) cyclohexanesulfonamide] | A (degradation lower than 20%) | – | – | A (degradation lower than 20%)
Cc1cc2cc(NS(=O)(=O)C3CCCCC3)ccc2n1Cc1ccc(F)cc1N [N-(1-(2-amino-4-fluorobenzyl)-2-methyl-1H-indol-5-yl)cyclohexanesulfonamide] | A (degradation lower than 20%) | – | – | B (20%< degradation<40%)
O=S(=O)(Nc1ccc2c(ccn2Cc2ccc(C(F)(F)F)cc2O)c1)C1CCCCC1 [N-(1-(2-hydroxy-4-(trifluoromethyl)benzyl)-1H-indol-5-yl)cyclohexanesulfonamide] | A (degradation lower than 20%) | – | – | A (degradation lower than 20%)

The remaining lines, values ahead:

Solution stability [1] | Idrug/Ictl at 0 mV (Kv7.2) | Idrug/Ictl at -40 mV (Kv7.2) | Photostability [2] | Structure (SMILES)
C (degradation > 40%) | – | – | C (degradation > 40%) | O=S(=O)(Nc1ccc2c(c1)CCN2Cc1ccc(F)cc1)C1CCCCC1 [N-(1-(4-fluorobenzyl)indolin-5-yl)cyclohexanesulfonamide]
A (degradation lower than 20%) | – | – | A (degradation lower than 20%) | CCc1cn(Cc2ccc(C(F)(F)F)cc2)c2ccc(NS(=O)(=O)C3CCCCC3)cc12 [N-(3-ethyl-1-(4-(trifluoromethyl)benzyl)-1H-indol-5-yl) cyclohexanesulfonamide]
– | 0.83±0.10 | 0.78±0.15 | – | O=S(=O)(Nc1ccc(NCc2ccc(F)cc2)c(F)c1)C1CCCCC1 [N-(3-fluoro-4-((4-fluorobenzyl)amino)phenyl) cyclohexanesulfonamide]
A (degradation lower than 20%) | – | – | B (20%< degradation<40%) | Cc1cc2c(c(C)c1NS(=O)(=O)C1CCCCC1)CCN2Cc1ccc(C(F)(F)F)cc1 [N-(4,6-dimethyl-1-(4-(trifluoromethyl)benzyl)indolin-5-yl)cyclohexanesulfonamide]
B (20%< degradation<40%) | – | – | B (20%< degradation<40%) | COc1ccc(CN(C)c2ccc(NS(=O)(=O)C3CCCCC3)cc2)cc1 [N-(4-((4-methoxybenzyl)(methyl)amino)phenyl) cyclohexanesulfonamide]
B (20%< degradation<40%) | – | – | C (degradation > 40%) | COc1ccc(CNc2ccc(NS(=O)(=O)C3CCCCC3)cc2)cc1 [N-(4-((4-methoxybenzyl)amino)phenyl) cyclohexanesulfonamide]
A (degradation lower than 20%) | – | – | B (20%< degradation<40%) | Cc1c(NS(=O)(=O)C2CCCCC2)ccc2c1ccn2Cc1ccc(C(F)(F)F)cc1 [N-(4-methyl-1-(4-(trifluoromethyl)benzyl)-1H-indol-5-yl)cyclohexanesulfonamide]
A (degradation lower than 20%) | – | – | A (degradation lower than 20%) | O=S(=O)(Nc1cc(F)c2c(ccn2Cc2ccc(C(F)(F)F)cc2)c1)C1CCCCC1 [N-(7-fluoro-1-(4-(trifluoromethyl)benzyl)-1H-indol-5-yl) cyclohexanesulfonamide]
B (20%< degradation<40%) | – | – | B (20%< degradation<40%) | O=S(=O)(Nc1cc(F)c2c(c1)CCN2Cc1ccc(C(F)(F)F)cc1)C1CCCCC1 [N-(7-fluoro-1-(4-(trifluoromethyl)benzyl)indolin-5-yl) cyclohexanesulfonamide]
